Source: ChEMBL document CHEMBL1129820, “1,4-Bis-(2,3-epoxypropylamino)-9,10-anthracenedione and related compounds as potent antifungal and antimicrobial agents” (Bioorg Med Chem Lett, 1997)
Values after ≈ are worked out from the molar mass of the structure shown.

Tests used:
Aureobasidium pullulans [1] = experiment: The compound was evaluated for antifungal activity against Aureobasidium pullulans at pH 7.5; assay type: functional
Aspergillus niger [2] = experiment: The compound was evaluated for antifungal activity against Aspergillus niger at pH 7.5; assay type: functional
Globisporangium ultimum = experiment: The compound was evaluated for antifungal activity against the fungi Pythium ultimum; assay type: functional, organism-based
Staphylococcus aureus [3] = experiment: The compound was evaluated for antibacterial activity against Staphylococcus aureus at pH 7.0; assay type: functional
Pseudomonas aeruginosa = experiment: The compound was evaluated for antibacterial activity against Pseudomonas aeruginosa at pH 7.0; assay type: functional
Pseudomonas fluorescens [4] = experiment: The compound was evaluated for antibacterial activity against the Pseudomonas fluorescence at pH 7.0; assay type: functional
Escherichia coli = experiment: The compound was evaluated for antibacterial activity against Escherichia coli at pH 7.0; assay type: functional
[5] = tested on: Dolichospermum flos-aquae; experiment: The compound was evaluated for antialgal activity against Anabaena flos-aquae; assay type: functional
[6] = tested on: Auxenochlorella pyrenoidosa; experiment: The compound was evaluated for antialgal activity against Chlorella pyrenoidosa; assay type: functional
Talaromyces funiculosus = experiment: The compound was evaluated for antifungal activity against Penicillium funiculosum at pH 7.5 (end point 2.5 p.p.m. in separate test); assay type: functional
Aureobasidium pullulans [7] = experiment: The compound was evaluated for antifungal activity against Aureobasidium pullulans at pH 7.5 (end point <0.25 p.p.m. in separate test); assay type: functional
Chaetomium globosum [8] = experiment: The compound was evaluated for antifungal activity against Chaetomium globosum at pH 7.5 (end point 2.5 p.p.m. in separate test); assay type: functional
Pseudomonas fluorescens [9] = experiment: The compound was evaluated for antibacterial activity against Pseudomonas fluorescence at pH 7.0; assay type: functional
Pseudomonas fluorescens [10] = experiment: The compound was evaluated for antibacterial activity against Pseudomonas fluorescence at pH 4.0; assay type: functional
Pseudomonas fluorescens [11] = experiment: The compound was evaluated for antibacterial activity against Pseudomonas fluorescence at pH 9.0; assay type: functional
Amorphotheca resinae [12] = experiment: The compound was evaluated for antifungal activity against Cladosporium resinae at pH 7.5 (end point 2.5 p.p.m. in separate test); assay type: functional
Aspergillus niger [13] = experiment: The compound was evaluated for antifungal activity against Aspergillus niger at pH 7.5 (end point 0.25 p.p.m. in separate test); assay type: functional
Pseudomonas fluorescens [14] = experiment: The compound was evaluated for antibacterial activity against Pseudomonas fluorescence at pH 8.0; assay type: functional
Pseudomonas fluorescens [15] = experiment: The compound was evaluated for antibacterial activity against Pseudomonas fluorescence at pH 5.5; assay type: functional
Staphylococcus aureus [16] = experiment: The compound was evaluated for antifungal activity against Staphylococcus aureus in separate test(endopoint 0.25 p.p.m.) at pH 7.0; assay type: functional
Pseudomonas fluorescens [17] = experiment: The compound was evaluated for antifungal activity against Pseudomonas fluorescence in separate test(endopoint 0.25 p.p.m.) at pH 7.0; assay type: functional
Phytophthora capsici = experiment: The compound was evaluated for antifungal activity against the fungi Phytophthora capsici; assay type: functional
Amorphotheca resinae [18] = experiment: The compound was evaluated for antifungal activity against Cladosporium resinae at pH 7.5 (end point <0.25 p.p.m. in separate test); assay type: functional
Pseudomonas fluorescens [19] = experiment: The compound was evaluated for antibacterial activity against Pseudomonas fluorescence at pH 7.0 in trypticase soy broth medium; assay type: functional
Pseudomonas fluorescens [20] = experiment: The compound was evaluated for antibacterial activity against Pseudomonas fluorescence at pH 9.0 in trypticase soy broth medium; assay type: functional
Pseudomonas fluorescens [21] = experiment: The compound was evaluated for antibacterial activity against Pseudomonas fluorescence at pH 4.0 in trypticase soy broth medium; assay type: functional
Aureobasidium pullulans [22] = experiment: The compound was evaluated for antifungal activity against Aureobasidium pullulans at pH 7.5 (end point 25 p.p.m. in separate test); assay type: functional
Chaetomium globosum [23] = experiment: The compound was evaluated for antifungal activity against Chaetomium globosum at pH 7.5 (end point <0.25 p.p.m. in separate test); assay type: functional

Question: What does the source list for `O=C1c2ccccc2C(=O)c2c(OCC3CO3)ccc(OCC3CO3)c21` (stereo not given)?
Answer: MIC (Aureobasidium pullulans [1]): > 250 µg/mL; MIC (Aspergillus niger [2]): > 250 µg/mL; EC50 (Globisporangium ultimum): 3.6 p.p.m.; MIC (Staphylococcus aureus [3]): > 250 µg/mL; MIC (Pseudomonas aeruginosa): > 250 µg/mL; MIC (Pseudomonas fluorescens [4]): 4 µg/mL (≈ 11.4 µM); MIC (Escherichia coli): > 250 µg/mL

Question: With `Cn1sc(Cl)cc1=O.Cn1sccc1=O` as the compound, how does the MIC [5] read?
Answer: 0.1 µg/mL

Question: And the MIC [6]?
Answer: 0.3 µg/mL

Question: Which results are given for `CCCCNC(=O)OC#CCI`?
Answer: MIC (Talaromyces funiculosus): 0.8 µg/mL (≈ 2.85 µM); MIC (Aureobasidium pullulans [7]): 0.1 µg/mL (≈ 0.356 µM); MIC (Chaetomium globosum [8]): 1.6 µg/mL (≈ 5.69 µM); MIC (Pseudomonas fluorescens [9]): 0.2 µg/mL (≈ 0.712 µM); MIC (Pseudomonas fluorescens [10]): 50 µg/mL (≈ 178 µM); MIC (Pseudomonas fluorescens [11]): 50 µg/mL (≈ 178 µM); MIC (Amorphotheca resinae [12]): 25 µg/mL (≈ 88.9 µM); MIC (Aspergillus niger [13]): 1.6 µg/mL (≈ 5.69 µM)

Question: With `O=C1c2ccccc2C(=O)c2c(NCC(Cl)CO)ccc(NCC(Cl)CO)c21` (stereo not given) as the compound, how does the MIC (Pseudomonas fluorescens [14]) read?
Answer: 50 µg/mL (≈ 118 µM)

Question: What about the MIC (Pseudomonas fluorescens [9]) of the same compound?
Answer: 25 µg/mL (≈ 59.1 µM)

Question: What about the MIC (Pseudomonas fluorescens [15]) of the same compound?
Answer: > 100 µg/mL

Question: And the MIC (Pseudomonas fluorescens [11])?
Answer: 50 µg/mL (≈ 118 µM)

Question: `O=C1c2ccccc2C(=O)c2c(NCC(Br)CO)ccc(NCC(Br)CO)c21` (stereo not given) was tested. Which MIC (Pseudomonas fluorescens [14]) did it give?
Answer: 0.4 µg/mL (≈ 0.781 µM)

Question: What about the MIC (Pseudomonas fluorescens [9]) of the same compound?
Answer: 50 µg/mL (≈ 97.6 µM)

Question: And the MIC (Pseudomonas fluorescens [15])?
Answer: 100 µg/mL (≈ 195 µM)

Question: What about the MIC (Pseudomonas fluorescens [11]) of the same compound?
Answer: 0.2 µg/mL (≈ 0.39 µM)

Question: Which MIC (Talaromyces funiculosus) does the source give for `O=C1c2ccccc2C(=O)c2c(NCC3CO3)ccc(NCC3CO3)c21` (stereo not given) here?
Answer: 0.8 µg/mL (≈ 2.28 µM)

Question: What about the MIC [5] of the same compound?
Answer: < 2 µg/mL

Question: And the MIC (Staphylococcus aureus [16])?
Answer: 0.2 µg/mL (≈ 0.571 µM)

Question: What about the MIC (Pseudomonas fluorescens [17]) of the same compound?
Answer: 0.2 µg/mL (≈ 0.571 µM)

Question: What about the MIC (Phytophthora capsici) of the same compound?
Answer: 0.2 µg/mL (≈ 0.571 µM)

Question: And the MIC (Amorphotheca resinae [18])?
Answer: 0.4 µg/mL (≈ 1.14 µM)

Question: What about the MIC (Pseudomonas fluorescens [19]) of the same compound?
Answer: 0.2 µg/mL (≈ 0.571 µM)

Question: And the MIC (Pseudomonas fluorescens [14])?
Answer: 0.05 µg/mL (≈ 0.143 µM)

Question: What about the EC50 (Globisporangium ultimum) of the same compound?
Answer: 0.03 p.p.m.

Question: And the MIC [6]?
Answer: < 2 µg/mL

Question: What about the MIC (Staphylococcus aureus [3]) of the same compound?
Answer: < 0.13 µg/mL

Question: What about the MIC (Pseudomonas aeruginosa) of the same compound?
Answer: 63 µg/mL (≈ 180 µM)

Question: And the MIC (Pseudomonas fluorescens [20])?
Answer: 0.2 µg/mL (≈ 0.571 µM)

Question: And the MIC (Pseudomonas fluorescens [21])?
Answer: 0.2 µg/mL (≈ 0.571 µM)

Question: What about the MIC (Pseudomonas fluorescens [9]) of the same compound?
Answer: 0.05 µg/mL (≈ 0.143 µM)

Question: And the MIC (Pseudomonas fluorescens [15])?
Answer: 0.025 µg/mL (≈ 0.0714 µM)

Question: And the MIC (Pseudomonas fluorescens [11])?
Answer: 0.05 µg/mL (≈ 0.143 µM)

Question: And the MIC (Aureobasidium pullulans [22])?
Answer: 0.8 µg/mL (≈ 2.28 µM)

Question: What about the MIC (Pseudomonas fluorescens [4]) of the same compound?
Answer: < 0.13 µg/mL

Question: What about the MIC (Chaetomium globosum [23]) of the same compound?
Answer: 0.4 µg/mL (≈ 1.14 µM)

Question: And the MIC (Escherichia coli)?
Answer: 250 µg/mL (≈ 714 µM)

Question: And the MIC (Aspergillus niger [13])?
Answer: 0.4 µg/mL (≈ 1.14 µM)

Question: With `COCC(=O)N(c1c(C)cccc1C)C(C)C(=O)OC` (stereo not given) [METALAXYL] as the compound, how does the MIC (Phytophthora capsici) read?
Answer: 0.4 µg/mL (≈ 1.43 µM)

Question: And the EC50 (Globisporangium ultimum)?
Answer: 0.017 p.p.m.

Question: `CCCCCCCCn1sc(Cl)c(Cl)c1=O` was tested. Which MIC (Pseudomonas fluorescens [4]) did it give?
Answer: < 0.2 µg/mL
